Data on seven molecules can be found in patent US9527066B2, “Dihydroxybipyridine complexes of ruthenium and iridium for water oxidation and hydrogenation” (The Board of Trustees of The University of Alabama, priority 2011, dated 2016).

Structures are written as SMILES. Where two headings read alike, the source gives them in different places. Some results are limits rather than exact numbers.

The nature of data set [1]: Water oxidation with sodium periodate, Clark electrode. The source says: Chem. Soc., 2010, vol. 132, pp. 16017-16029:
The conditions of data set [2]: UV-Vis titration, Na2HPO4/HCl buffers pH 2.5-9.2; simultaneous removal of both ligand protons.
Procedure: Approximately 100 mL of 0.1M Na2HPO4 was put into a beaker and stirred and the pH was recorded. 2 mL of 0.0000034M catalyst was put into 10 mL volumetric flasks (final concentration of Ir complex is 6.8 μM). 100 mL of 0.1M Na2HPO4 was titrated with 0.1M HCl until it reached the desired buffer pH (every 0.5 pH unit). At each desired buffer pH, 8 mL of the solution was put into the volumetric flasks. pH's used were as follows: 9.2, 8.0, 7.5, 7.0, 6.5, 6.0, 5.5, 5.0, 4.5, 4.0, 3.5, 3.0, 2.5. […] UV/Vis spectra for each solution were obtained (FIG. 5).
The conditions of data set [3]: for TOF / TON: 5 μM catalyst, 20 mM NaIO4 in 180 mM NaOAc; for Enhancement as pH change from 3 to 6: ratio pH 6 to pH 3. The method, then: Catalysts of the formula Cp*IrCl(n,n′-DHBP)]Cl according to the present invention were used for water oxidation at a variety of different pH levels. These catalysts were the same catalysts as the first three catalysts used in Example 6.5 μM catalyst with 20 mM NaIO4 in 180 mM NaOAc were employed.

For data set [4] the following is noted: 5 μM catalyst; for 10 min: TOF / 10 min: TON / TOF: 20 mM NaIO4, pH 5.6, 25° C.; for TOF / Initial Rate: first 30 sec; for Initial Rate: 20 mM NaIO4, pH 5.6 NaOAc buffer, 25° C.
Procedure: Catalysts were used for water oxidation with NaIO4 as an oxidant.
20 mM of NaIO4 was added. The pH was 5.6 and NaOAc was used as a buffer. The vessel and catalyst solution were maintained at 25° C.
For data set [5] the following is noted: 17 mM NaIO4 as oxidant, 25° C.
Source text: Rates were most linear from 30 to 240 seconds. […] In this analysis, the slope corresponds to reaction order in Ir catalyst.
For data set [6] the following is noted: 5 μM catalyst. The method, then: A catalyst according to the present invention [Cp*Ir^III(DHBP)Cl]Cl was used for water oxidation with cerium (IV) ammonium nitrate (CAN) as the oxidant. The reaction progress was monitored by a Clark electrode to measure the increase in dissolved oxygen with time in a sealed vessel. For longer reaction times, the amount of oxygen that builds up in the headspace is significant and was measured by pressure transducers. In the first set of experiments, the concentration of catalyst was 5 μM and CAN=67 mM at pH=6.0. […] A prior art catalyst, catalyst 15(Cat 15 in FIG. 4, “Cat 15+67 mM CAN”) was used as a comparison. The prior art Cat 15 is represented by the formula taken from Blakemore, et al., “Half-sandwich iridium complexes for homogeneous water-oxidation catalysis,” J. Am. Chem. Soc., 2010, vol. 132, pp. 16017-16029:
In a second set of experiments, the concentration of catalyst was 5 μM. Cat5 was used in a buffered aqueous solution at pH 5.6 with 17 mM sodium periodate as the oxidant, as shown in green in FIG. 4.

Data set [7] is described as follows: Hydrogenation of acetophenone, comparison of five catalysts. The settings on record: 0.02 mmole catalyst, 85-90° C., 24 hours unless x=18, y=20, z=21 hours. The method, then:
Five catalysts were used to catalyze hydrogenation of acetophenone. The first four are represented by the following structures:
These catalysts are represented as 1-4 in Table 4. The last catalyst is [(η^6-p-cymene)RuCl2]2. The reaction mixture contained 0.02 mmole catalyst, 10 mmole of NaO2CH or 2 mmole of KOH, 0.667 mmole of 1,3,4-trimethoxybenzene as internal standard, and 10 mL solvent. The reaction was carried out under N2 at 85-90° C. for 24 hours unless otherwise stated (x=18 hours, y=20 hours, z=21 hours). The percentage conversion was determined by ^1H-NMR as an average of two trials.

Data set [8] in a line: Hydrogenation of imines with H2 in THF. The settings on record: substrate N-benzylidene-methylamine. The method, then: (§1) [drawing 11] was used for hydrogenation of several different organic substrates. For ketones, the reaction was carried out by mixing 1 mole % of catalyst, 10:90 of MeOH:water and NaO2CH, and heated to reflux for 16-18 hours. For imines, the reaction was carried out by mixing 1 mole % of catalyst, THF, NEt3 base (5 molar %) and 75 psi H2(g), with heating to reflux for 48 hours. The catalyst provided a very high percentage conversion for ketones in water.

Data set [9] can be described thus: Hydrogenation of ketones with NaO2CH in MeOH:water. The settings on record: for % conversion: 1 mole % catalyst, 10:90 MeOH:water, NaO2CH, reflux 16-18 hours. The method, then:
as §1

The nature of data set [10]: Hydrogenation of acetophenone under various conditions. The following applies: 90° C., 16-17 hours. As to the method: [drawing 12] was used to catalyze hydrogenation of acetophenone under various conditions. For each mole of the substrate, 5 moles of a base is used. The reaction is carried out at 90° C. for 16-17 hours.
The mark [11] stands for this setting: first 30 seconds of reaction, 5 μM catalyst, 78 mM CAN, 25° C.
Where [12] appears, read: first 10 minutes of reaction, 5 μM catalyst, 78 mM CAN, 25° C.
Where [13] appears, read: 5 μM catalyst, pH 5.6 buffered, 17 mM sodium periodate.
Where [14] appears, read: substrate 2-methoxy-acetophenone.
[15] abbreviates: substrate 4-methoxy-acetophenone.

In the case of `Cc1c(C)c(C)[c-](C)c1C.[Cl-].[Cl][Ir+2].c1ccc(-c2ccccn2)nc1` [Cat15, reference compound], the “activity in water oxidation (in words)” value in data set [1] (5 μM catalyst, pH 5.6, 17 mM oxidant ("under these conditions")) is given as “not active”.

On to `Cc1c(C)c(C)[c-](C)c1C.Oc1ccnc(-c2cc(O)ccn2)c1.[Cl-].[Cl-].[Ir+3]` [[Cp*IrCl(4,4′-DHBP)]Cl, [Cp*Ir(4,4′-dhbp)Cl]Cl], for which, under setting [11], the “Initial Rate” value was found to be 81.25 ± 12 μmole O2 L^−1 min^−1 and the TOF amounted to 16.33 ± 12 min⁻¹. Under setting [12], the TOF was found to be 4.33 min⁻¹ and the TON was determined as 43.34. Also, the pKa (in general, the negative logarithm of the acid dissociation constant) in data set [2] amounted to 4.4±0.2. In data set [3] (pH = 3 for 10 minutes), the TOF was 0 min⁻¹ and the TON came out at 0. In addition, in data set [3] (pH = 6 for 10 minutes), the TOF came out at 14 min⁻¹ and the TON is 124. Moreover, the “Enhancement as pH change from 3 to 6” value in data set [3] is given as greater than 124X. In addition, in data set [4], the “10 min: TOF” value came to 11.87 min⁻¹, the “10 min: TON” value was determined as 118.70, the TOF turned out to be 21.35 ± 3 min⁻¹ and the “Initial Rate” value worked out at 106.25 ± 3 μM O2 min^−1.

In the case of `Cc1c(C)c(C)[c-](C)c1C.Oc1cccc(-c2cccc(O)n2)n1.[Cl-].[Cl][Ir+2]` [[Cp*IrCl(6,6′-DHBP)]Cl, [Cp*Ir(6,6′-DHBP)Cl]Cl], the “Initial Rate” value under setting [11] worked out at 75.00 ± 15 μmole O2 L^−1 min^−1 and the “Initial Rate” value in [4] is on record as 50 ± 3 μM O2 min^−1. In addition, the TOF under setting [11] was determined as 15.07 ± 15 min⁻¹; the TOF under setting [12] is 3.89 min⁻¹; the TOF in data set [1] (setting [13]) turned out to be 6.3 min⁻¹; the TOF in [1] (at higher NaIO4 concentrations) stood at 18 min⁻¹; the TOF in data set [3] (pH = 3 for 10 minutes) was 0.14 min⁻¹; the TOF in data set [3] (pH = 6 for 10 minutes) was 14 min⁻¹. The TOF came out at 6.4 min⁻¹ in [6] (CAN=67 mM, pH=6.0) and 10.04 ± 3 min⁻¹ in data set [4]. This molecule also returned a TON under setting [12] of 38.93; a TON in [1] (at higher NaIO4 concentrations, in 5 mM (so in the source)) of 84; a TON in [1] (in 5 min, 5 μM catalyst, pH 5.6, 17 mM sodium periodate) of 36; a TON in [3] (pH = 3 for 10 minutes) of 1.3; a TON in data set [3] (pH = 6 for 10 minutes) of 120; a TON in [6] (in 5 min, CAN=67 mM, pH=6.0) of 14. Further, the “slope of ln(rate) vs. ln([catalyst]) (reaction order in Ir catalyst)” value in data set [5] amounted to 0.94. Further, the pKa in data set [2] came to 4.6±0.1. For the same molecule, the “initial rate of oxygen generation” value in [1] (setting [13]) is 31 µM/min. Moreover, the “Enhancement as pH change from 3 to 6” value in [3] is on record as 92X. For the same molecule, the “water oxidation (in words)” value in data set [6] (CAN=17 mM) is given as “does not oxidize water appreciably”. Besides, the “initial rate of oxygen evolution” value in data set [6] (CAN=67 mM, pH=6.0) was found to be 31 µM/min. The “10 min: TOF” value in data set [4] amounted to 9.99 min⁻¹. For the same molecule, in data set [4], the “10 min: TON” value amounted to 99.86.

On to `Cc1c(C)c(C)[c-](C)c1C.[Cl-].[Cl-].[Ir+3].c1ccc(-c2ccccn2)nc1` [[Cp*IrCl(bipy)]Cl, reference compound], for which, where the note is “as stated in text of Example 5”, the Initial Rate was 72±3 mole O2 L^−1 s^−1 and the “turnover frequency (TOF)” value came to 14.4±0.7. In [4], the “10 min: TOF” value was 0.064 min⁻¹, the “10 min: TON” value was 0.64, the TOF was determined as 0 ± 3 min⁻¹ and the “Initial Rate” value was 0 ± 3 μM O2 min^−1.

Regarding `Cc1ccc(C(C)C)cc1.Cc1ccc(C(C)C)cc1.[Cl][Ru][Cl].[Cl][Ru][Cl]` [[p-cymRuCl2]2, [(η^6-p-cymene)RuCl2]2], the “% conversion” value is 100% in data set [7] (KOH, ^1PrOH); 15% in data set [7] (NaO2CH, 10/90 MeOH/H2O); 13% in data set [7] (NaO2CH, 50/50 MeOH/H2O); 13% in data set [7] (NaO2CH, H2O).

Regarding `Cc1ccc(C(C)C)cc1.Oc1cccc(-c2cccc(O)n2)n1.[Cl-].[Cl][Ru+]` [drawing 11], the Turnover frequency came out at 0.63 h⁻¹ in [8]; 8.83 h⁻¹ in data set [9] (setting [14]); 13.50 h⁻¹ in [9] (substrate 2′-acetonaphtone); 16.17 h⁻¹ in [9] (substrate 4-bromo-acetophenone); 10.71 h⁻¹ in data set [9] (setting [15]); 16.17 h⁻¹ in [9] (substrate acetophenone). For the same molecule, the Turnover number in data set [8] amounted to 30; in data set [9] (setting [14]), 53; in data set [9] (substrate 2′-acetonaphtone), 81; in data set [9] (substrate 4-bromo-acetophenone), 97; in data set [9] (setting [15]), 65; in [9] (substrate acetophenone) it was 97. Further, the “% conversion” value stood at 30% in [8] (1 mole % catalyst, THF, NEt3, 75 psi H2, reflux 48 hours); 53% in [9] (setting [14]); 81% in [9] (substrate 2′-acetonaphtone); 97% in data set [9] (substrate 4-bromo-acetophenone); 65% in [9] (setting [15]); 97% in data set [9] (substrate acetophenone).

As to `Cc1ccc(C(C)C)cc1.Oc1cccc(-c2cccc(O)n2)n1.[Cl-].[Cl][Ru+]` [drawing 12], the “% conversion” value worked out at 97% in [10] (1 mole % catalyst, NaO2CH, 10/90 MeOH/H2O); 96% in data set [10] (1 mole % catalyst, NaO2CH, 50/50 MeOH/H2O); 31% in data set [10] (1 mole % catalyst, NaO2CH, H2O); 89% in [10] (5 mole % catalyst, NaO2CH, H2O); 89% in data set [10] (5 mole % catalyst, NaO2CH/HO2CH, H2O).
